Results taken from patent publication US12533327B2, “Hexylamine salts and methods of using hexylamine” (priority 2019, dated 2026).
Where a name gives a salt, the structure may show the parent alone.

What was measured:
[1] = Storage of hexylamine succinate in the atmosphere, water gain; format: physicochemical; settings: over one week of storage
Description: Hexylamine succinate (structure shown in Formula II) was effectively synthesized by pouring an equimolar amount of hexylamine into succinic acid powder while continuously stirring in an ice bath so that the temperature of the salt solution would be […].

[2] = Shelf life comparison, salts left exposed to air for a month; format: physicochemical
Source text: FIG. 1 depicts a comparison of hexylamine succinate and hexylamine tartrate after being left exposed to air for a period of a month.
Hexylamine succinate and hexylamine tartrate were left exposed for a period of a month.

human subject = test: Human tolerance of hexylamine succinate; format: in vivo; settings: one subject, 250 lbs, daily dose increased from 100 mg
Description: A human subject (250 lbs) was administered a single 100 mg hexylamine succinate, and their tolerance to the salt was record. The daily dose was increased increased daily to determine the highest daily dose that could be tolerance by the subject. At a daily dose of 800 mg and higher, the subject reported side effects such as feelings of discomfort.

human subjects [3] = format: in vivo
Description: Five human subjects were given 100-600 mg hexylamine succinate each day over a period of a month or four weeks (see Table 1).
Over the course of the treatment period, two of the subjects who ingested hexylamine daily experienced a weight loss of 3 pounds without making any changes to their diet or exercise regimen. With the administration of 600 mg hexylamine succinate (equaling 276 mg of hexylamine base), the subjects' body temperature would rise by about 0.5° C.
None of the subjects experienced any of the toxic side effects described for too much exposure hexylamine, which include, burning sensation, abdominal pain, shock, or collapse. However, the effectiveness would diminish with doses less than 100 mg.

[4] = Pharmacotechnical properties of synthesized hexylamine salts (state, hygroscopicity, solubility, dissolution, stability)
[5] = cited from earlier work
[6] = Citrate salts left exposed to air for one day; format: physicochemical
Source text: FIG. 2 depicts a comparison of monohexylamine citrate and tri-hexylamine citrate after being left exposure to air for one day.

human subjects [7] = test: Administration of […] and caffeine, caffeine side effects; settings: same subjects, 300 mg caffeine alone
human subjects [8] = test: Iowa trail making test; format: in vivo; settings: 1000 mg tri-hexylamine citrate oral vs placebo
Source text: The Iowa trail making test assesses visual attention and task switching. In map A, the subject is to draw lines to connect circled numbers in a numerical sequence (1-2-3- . . . ) as rapidly in possible. In map B, the subject is to draw lines to connect circled numbers and letters in an alternating numeric and alphabetic sequence (1-A-2-B- . . . ) as rapidly as possible. Accordingly, map A assesses cognitive processing speed, while map B asses executive function. If the subject makes an error, it was immediately pointed it out and the subject was allowed correct it. Accordingly, errors affect the score only in that the correction of errors is included in the completion time for the task. […] Thus, hexylamine administration improves executive function.

human subjects [9] = system: human subjects
human = settings: cited from earlier work
[10] = standard temperature and pressure; cited from earlier work
[11] = Physiological effects of propylamine and amylamine; format: in vivo; settings: doses starting at 300 mg
Source text: Propylamine, […], a close chemical entity to hexylamine, has been used in the distant past as a sedative at doses of 2-10 grams (Page 892 of The Standard Medical Directory of North America 1902, GP Engelhard and Company, Chicago). […] Accordingly, compound having similar structure to hexylamine were expected to reduce alertness and cognitive function due to their sedative effects (from de facto slowdown of brain activity).

[12] = Organoleptic properties and contact irritation of hexylamine and its salts
[13] = Time course of tri-hexylamine citrate in water; format: physicochemical; settings: one gram scattered over 100 ml water at room temperature
Description: FIG. 3 depicts a time course of tri-hexylamine citrate in water. One gram of tri-hexylamine citrate was scattered over 100 ml water at room temperature (left). About one minute after, all of the tri-hexylamine citrate was dissolved (right).

human subjects [14] = test: Psychomotor vigilance test via sleep-2-Peak mobile application; format: in vivo; settings: 1000 mg oral vs placebo, p=0.0015
Source text: Statistically significant results were obtained from the cognitive function tests.

human subjects [15] = test: Effect of tri-hexylamine citrate on physical performance; format: in vivo; settings: four subjects, 1000 mg 30 minutes before exercise
Description: Four human subjects ingested 1000 mg tri-hexylamine citrate 30 minutes before performing their regular exercise.

human subjects [16] = test: Activity of hexylamine salt forms on human subjects; format: in vivo; settings: taken as a capsule, compared with other salts of hexylamine
[17] = five subjects, 100-600 mg each day for a month

CCCCCCN.O=C(O)CCC(=O)O [Hexylamine succinate]
hygroscopicity [1]: non-hygroscopic
water gained in the atmosphere [1]: less than 1%
state of the powder and moisture uptake [2]: remained a fine powder and gained little moisture
daily dose at which side effects such as feelings of discomfort were reported (human subject): ≥ 800 mg
rise of body temperature (human subjects [3]; 600 mg hexylamine succinate (276 mg hexylamine base)): about 0.5 °C
appetite (human subjects [3]; [17]): reduced appetite
athletic performance (human subjects [3]; [17]): increase in athletic performance
body temperature (human subjects [3]; [17]): increased body temperature
endurance (human subjects [3]; [17]): increase in endurance
fatigue (human subjects [3]; [17]): reduction of fatigue
heart rate (human subjects [3]; [17]): increase in heart rate
increase in diastolic blood pressure, average (human subjects [3]; [17]): 2 mm
increase in systolic blood pressure, average (human subjects [3]; [17]): 8 mm
memory recollection (human subjects [3]; [17]): improved memory recollection
mental acuity (human subjects [3]; [17]): increased mental acuity
mood (human subjects [3]; [17]): improved mood
strength (human subjects [3]; [17]): increase in strength
sweating (human subjects [3]; [17]): increased sweating
hygroscopicity [4]: non-hydroscopic
solubility in water [4]: good solubility and dissolution rate

CCCN [Propylamine]
physiological use ([5]; doses of 2-10 grams (Standard Medical Directory of North America 1902)): sedative

CCCCCCN.O=C(O)C(O)C(O)C(=O)O (stereo not shown) [hexylamine tartrate]
state of the powder and moisture uptake [2]: absorbed moisture from the atmosphere and suffered from extensive caking

CCCCCCN.O=C(O)CC(O)(CC(=O)O)C(=O)O [mono-hexylamine citrate]
state of the salt [6]: hardened into a solid mass
dissolution rate in water [4]: much slower dissolution rate in water
hygroscopicity [4]: very hygroscopic

Cn1c(=O)c2c(ncn2C)n(C)c1=O [caffeine]
jittery sensation or caffeine crash (human subjects [7]): experience at leas tone of these side effects

CCCCCCN [Hexylamine]
tolerability (human subjects [3]; five subjects, none had toxic side effects (burning sensation, abdominal pain, shock, collapse)): generally well-tolerated
dose below which the effectiveness would diminish (human subjects [3]; human, in vivo): less than 100 mg
weight loss (human subjects [3]; two of the subjects, daily ingestion over the treatment period, no change of diet or exercise): 3 pounds
average completion time, map A (human subjects [8]; not statistically significant): reduced the average time
change of average completion time, map B (human subjects [8]; p=0.0020): -12.5 s
discomfort or serious side effects (human subjects [9]; twelve healthy subjects, 1000 mg oral, blinded crossover vs placebo): None of the subjects experienced any discomfort or any serious side effect
toxicity label (human; Phytochemical Dictionary, second edition): highly toxic in any quantity
blood pressure and other physiological effects (human; administered to a human (Alles 1941)): no change in blood pressure or any other physiological effect was observed
solubility in organic solvents [10]: soluble in almost all organic solvents

CCCCCN [amylamine, Amylamine]
body temperature [11]: a drop in body temperature
heart rate [11]: reduction in heart rate
cardiac function, heartbeat and body temperature ([5]; King's American Dispensatory 1909): reduce cardiac function, reduce heartbeat, and reduce body temperature

O=[N+]([O-])O [nitrate]
effect on contact with skin, tongue or mouth [12]: very irritating on contact with the skin or mouth

CCCCCCN [tri-hexylamine citrate]
state of the salt [6]: suffered from some caking
time until all was dissolved [13]: About one
change of average reaction time (human subjects [14]): -70.1 ms
reduction of average reaction time (human subjects [14]): 18%
focus and energy, self-reported (human subjects [15]): feeling more focused and energetic
sense of fatigue during and after exercise (human subjects [15]): reduced sense of fatigue
repetitions on knee extensions and bench press (human subjects [15]; vs no supplement): greater number of repetitions
time to exhaustion on the treadmill (human subjects [15]; vs no supplement): longer time to exhaustion
onset of effect (human subjects [16]): has a faster effect on human subjects
diastolic pressure, group (human subjects [9]; 1000 mg oral vs placebo): no significant difference
heart rate, group (human subjects [9]; 1000 mg oral vs placebo): no significant difference
systolic blood pressure, group (human subjects [9]; 1000 mg oral vs placebo): no significant difference
self-mood assessment test (human subjects [9]; 1000 mg oral vs placebo, scale 1-10): did not show any statistically significant results
blood pressure (human subjects [9]; 1000 mg oral vs placebo, up to 50 minutes after administration): largely unaffected
dissolution rate in water [4]: dissolves faster than all other salts of hexylamine in water
stability of the salt [4]: very stable salt
